Source: patent publication US10780092B2, “Fused pyrazine derivatives useful as soluble guanylate cyclase stimulators” (Merck Sharp & Dohme Corp., priority 2016, dated 2020)
pEC50, pKi: −log10 of the molar value.

Key:
[1] = biological target: human recombinant sGC enzyme (Homo sapiens (Human), UniProt Q02108+Q02153); assay: SEC competition binding assay with [3H] Compound B radioligand; conditions: displacement of 1.6 nM [3H] Compound B, 24 h at 37° C.
Outline: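 Recombinant human sGC incubated with 1.6 nM [3H] Compound B and test compounds for 24 h at 37° C. Buffer: 50 mM triethanolamine pH 7.4, 3 mM MgCl2, 0.025% BSA, 2 mM DTT, 300 μM DETA/NO, 400 μM GTP, 1% DMSO. Bound ligand separated by gel filtration and counted by scintillation; non-specific binding with 1 μM Compound B; Ki from one-site fit.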

[2] = biological target: sGC α1/β1 heterodimer (Homo sapiens (Human), UniProt Q02108+Q02153); assay: Cell-based sGC functional assay (CASA assay), cGMP by HTRF; conditions: CHO-K1/sGC cells; for Emax: CHO-K1, cGMP production as percentage of maximum of compound A (set to 100%), read-out: % Activation; for pEC50: inflection point of cGMP production, 4P fit, read-out: IP
Outline: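 CHO-K1 cells stably expressing human sGC α1/β1, with 0.5 mM IBMX, pre-incubated ±1 μM DETA-NO 30 min at 25° C, then compound 1 hr at 37° C (2.5% DMSO). cGMP by HTRF; activation as % of reference activator maximum, 4P fit giving inflection point and maximum […].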

Row | Structure (SMILES) | pKi [1] | Emax [2] | pEC50 [2]
1 | CCCCc1nc(-c2nc(N)c3c(n2)NC(=O)C3(C)c2ccc(C(F)(F)F)c(O)c2)cn2ccnc12 (stereo not drawn) [Example 76-B, 4-Amino-2-(8-butylimidazo[1,2-a]pyrazin-6-yl)-5-(3-hydroxy-4-(trifluoromethyl)phenyl)-5-methyl-5,7-dihydro-6H-pyrrolo[2,3-d]pyrimidin-6-one] | 8.10 | 110% | 6.26
2 | CC1(c2ccc(O)c(Cl)c2)C(=O)Nc2nc(-c3cn4ccnc4c(CCC4CCCCC4)n3)nc(N)c21 (stereo not drawn) [Example 77-B, 4-Amino-5-(3-chloro-4-hydroxyphenyl)-2-(8-(2-cyclohexylethyl)imidazo[1,2-a]pyrazin-6-yl)-5-methyl-5,7-dihydro-6H-pyrrolo[2,3-d]pyrimidin-6-one] | 8.06 | 99% | 6.19
3 | CC1(c2cccc(O)c2)C(=O)Nc2nc(-c3cn4ccnc4c(CC4CCCCC4)n3)nc(N)c21 (stereo not drawn) [Example 82-B, 4-Amino-2-(8-(cyclohexylmethyl)imidazo[1,2-a]pyrazin-6-yl)-5-(3-hydroxyphenyl)-5-methyl-5,7-dihydro-6H-pyrrolo[2,3-d]pyrimidin-6-one] | 9.40 | 111% | 6.68
4 | CC1(c2ccc(O)c(F)c2)C(=O)Nc2nc(-c3cn4ccnc4c(CCC4CCCCC4)n3)nc(N)c21 (stereo not drawn) [Example 84-B, 4-Amino-2-(8-(2-cyclohexylethyl)imidazo[1,2-a]pyrazin-6-yl)-5-(3-fluoro-4-hydroxyphenyl)-5-methyl-5,7-dihydro-6H-pyrrolo[2,3-d]pyrimidin-6-one] | 8.46 | 121% | 6.50
5 | CC1(c2ccc(Cl)c(O)c2)C(=O)Nc2nc(-c3cn4ncnc4c(CCCC(F)(F)F)n3)nc(N)c21 (stereo not drawn) [Example 87-A, 4-Amino-5-(4-chloro-3-hydroxyphenyl)-5-methyl-2-(8-(4,4,4-trifluorobutyl)-[1,2,4]triazolo[1,5-a]pyrazin-6-yl)-5,7-dihydro-6H-pyrrolo[2,3-d]pyrimidin-6-one] | 8.55 | 111% | 6.03
6 | CC1(c2ccc(O)c(Cl)c2)C(=O)Nc2nc(-c3cn4ccnc4c(CC4CCCCC4)n3)nc(N)c21 (stereo not drawn) [Example 89-B, 4-Amino-5-(3-chloro-4-hydroxyphenyl)-2-(8-(cyclohexylmethyl)imidazo[1,2-a]pyrazin-6-yl)-5-methyl-5,7-dihydro-6H-pyrrolo[2,3-d]pyrimidin-6-one] | 9.08 | 127% | 6.09
7 | CC1(c2ccc(Cl)c(O)c2)C(=O)Nc2nc(-c3cn4ccnc4c(Cc4ccc(F)cc4F)n3)nc(N)c21 (stereo not drawn) [Example 91-A, 4-Amino-5-(4-chloro-3-hydroxyphenyl)-2-{8-[(2,4-difluorophenyl)methyl]imidazo[1,2-a]pyrazin-6-yl}-5-methyl-5,7-dihydro-6H-pyrrolo[2,3-d]pyrimidin-6-one] | 9.70 | 141% | 7.12
8 | CC1(c2cc(O)c(Cl)cn2)C(=O)Nc2nc(-c3cn4ccnc4c(Cc4ccc(F)cc4)n3)nc(N)c21 (stereo not drawn) [Example 92-B, 4-Amino-5-(5-chloro-4-hydroxypyridin-2-yl)-2-{8-[(4-fluorophenyl)methyl]imidazo[1,2-a]pyrazin-6-yl}-5-methyl-5,7-dihydro-6H-pyrrolo[2,3-d]pyrimidin-6-one] | 9.14 | 104% | 5.54

The remaining compounds from weak to strong by pKi [1], led by results:

Row | pKi [1] | Emax [2] | pEC50 [2] | Structure (SMILES)
9 | 7.84 | 96% | 5.74 | CC1(c2ccc(Cl)c(O)c2)C(=O)Nc2nc(-c3cn4ccnc4c(CC4CCC(F)(F)CC4)n3)nc(N)c21 (stereo not drawn) [Example 95-A, 4-Amino-5-(4-chloro-3-hydroxyphenyl)-2-(8-((4,4-difluorocyclohexyl)methyl)imidazo [1,2-a]pyrazin-6-yl)-5-methyl-5,7-dihydro-6H-pyrrolo[2,3-d]pyrimidin-6-one]
10 | 7.86 | 131% | 6.45 | CC1(c2ccc(O)cc2)C(=O)Nc2nc(-c3cn4ccnc4c(CCC(F)(F)C(F)(F)F)n3)nc(N)c21 (stereo not drawn) [Example 81-B, 4-Amino-5-(4-hydroxyphenyl)-5-methyl-2-(8-(3,3,4,4,4-pentafluorobutyl)imidazo[1,2-a]pyrazin-6-yl)-5,7-dihydro-6H-pyrrolo[2,3-d]pyrimidin-6-one]
11 | 8.00 | 70% | 7.72 | CC1(c2ccc(O)cc2)C(=O)Nc2nc(-c3cn4ncnc4c(CCC(F)(F)C(F)(F)F)n3)nc(N)c21 (stereo not drawn) [Example 80-B, 4-Amino-5-(4-hydroxyphenyl)-5-methyl-2-(8-(3,3,4,4,4-pentafluorobutyl)-[1,2,4]triazolo[1,5-a]pyrazin-6-yl)-5,7-dihydro-6H-pyrrolo[2,3-d]pyrimidin-6-one]
12 | 8.03 | 108% | 7.02 | CC1(c2cccc(O)c2)C(=O)Nc2nc(-c3cn4ccnc4c(CCC(F)(F)C(F)(F)F)n3)nc(N)c21 (stereo not drawn) [Example 79-B, 4-Amino-5-(3-hydroxyphenyl)-5-methyl-2-(8-(3,3,4,4,4-pentafluorobutyl)imidazo[1,2-a]pyrazin-6-yl)-5,7-dihydro-6H-pyrrolo[2,3-d]pyrimidin-6-one]
13 | 8.18 | 153% | 6.11 | CCCCc1nc(-c2nc(N)c3c(n2)NC(=O)C3(C)c2ccc(O)c(Cl)c2)cn2ccnc12 (stereo not drawn) [Example 75-B, 4-Amino-2-(8-butylimidazo[1,2-a]pyrazin-6-yl)-5-(3-chloro-4-hydroxyphenyl)-5-methyl-5,7-dihydro-6H-pyrrolo[2,3-d]pyrimidin-6-one]
14 | 8.29 | 109% | 6.65 | CC1(c2cccc(O)c2)C(=O)Nc2nc(-c3cn4ccnc4c(CCC4CCCCC4)n3)nc(N)c21 (stereo not drawn) [Example 83-B, 4-Amino-2-(8-(2-cyclohexylethyl)imidazo[1,2-a]pyrazin-6-yl)-5-(3-hydroxyphenyl)-5-methyl-5,7-dihydro-6H-pyrrolo[2,3-d]pyrimidin-6-one]
15 | 8.32 | 130% | 6.22 | CC1(c2ccc(O)cc2)C(=O)Nc2nc(-c3cn4ccnc4c(CCC4CCCCC4)n3)nc(N)c21 (stereo not drawn) [Example 85-B, 4-Amino-2-(8-(2-cyclohexylethyl)imidazo[1,2-a]pyrazin-6-yl)-5-(4-hydroxyphenyl)-5-methyl-5,7-dihydro-6H-pyrrolo[2,3-d]pyrimidin-6-one]
16 | 8.61 | 138% | 7.03 | CC1(c2ccc(Cl)c(O)c2)C(=O)Nc2nc(-c3cn4ccnc4c(Cc4c(F)cccc4F)n3)nc(N)c21 (stereo not drawn) [Example 90-A, 4-Amino-5-(4-chloro-3-hydroxyphenyl)-2-{8-[(2,6-difluorophenyl)methyl]imidazo[1,2-a]pyrazin-6-yl}-5-methyl-5,7-dihydro-6H-pyrrolo[2,3-d]pyrimidin-6-one]
17 | 8.65 | 122% | 6.78 | CC1(c2ccc(F)c(O)c2)C(=O)Nc2nc(-c3cn4ccnc4c(CCC4CCCCC4)n3)nc(N)c21 (stereo not drawn) [Example 86-B, 4-Amino-2-(8-(2-cyclohexylethyl)imidazo[1,2-a]pyrazin-6-yl)-5-(4-fluoro-3-hydroxyphenyl)-5-methyl-5,7-dihydro-6H-pyrrolo[2,3-d]pyrimidin-6-one]
